Results from patent US20110172193A1, “PRO-DRUGS OF (E)-7-(3-(2-AMINO-1-FLUOROETHYLIDENE)PIPERIDIN-1-YL)-1-CYCLOPROPYL-6-FLUORO-8-METHOXY-4-OXO-1,4-DIHYDROQUINOLINE-3-CARBOXYLIC ACID” (priority 2010, published 2011).
Like-named read-outs stand apart in the source and are kept apart here.

Columns and labels:
[1] = Clarity of test compound solutions at […] (aqueous solubility); settings: for solubility at 24 h: pH 4, aqueous buffer; for Aqueous Solubility pH~7 (visual clarity): […] active-form equivalents, pH 7 (50 mM phosphate), after 24 hours
Method: A 50-mg/mL solution of a compound of formula (I) or a compound of formula (II) in H2O was titrated with 0.1 M NaOH until pH reached 5.7-6.1. Any solid that precipitated was filtered. The remaining solutions or phase-separated oil/H2O mixtures were freeze-dried to produce zwitterions as fluffy solids.
The aqueous solubility of Compounds #14, #15 and #16 were determined by a modified procedure. In these cases, the samples were targeted at a pH of 4 and 7 and were measured exclusively using 100 mM phosphate buffers. For both pH's, measured samples were initially prepared at ˜3 mg/ml and ˜10 mg/ml concentrations and for samples that dissolved rapidly, additional compound was added to the solution until saturated solutions were obtained.

[2] = tested on: Staphylococcus aureus (OC8525), a methicillin-resistant strain (MRSA); assay: In vivo efficacy in a mouse systemic infection model; settings: for % Survival: i.v., single dose level, mice; for ED50: Staphylococcus aureus, 72 h, Swiss Webster mice infected i.p. with MRSA, 3 day survival, normalized to parent content
Method: Female Swiss Webster mice weighing between 20-25 g were infected intraperitoneally with approximately 5×10^5 colony forming units (CFU) Staphylococcus aureus (OC8525), a methicillin-resistant strain (MRSA), in 7% mucin. One hour later, the animals were given the test compound intravenously or orally in a dose volume of 0.2 mL. Each animal test group consisted of eight animals. The test compounds were prepared immediately before dosing in 5% dextrose in water (D5W) and diluted further in D5W for i.v. and p.o. administration. The mice were observed over a three day period and ED50 values were calculated from the resulting % survival curves (see Table 13, below). The measured ED50 values were normalized to the content of (E)-7-(3-(2-amino-1-fluoroethylidene)piperidin-1-yl)-1-cyclopropyl-6-fluoro-8-methoxy-4-oxo-1,4-dihydroquinoline-3-carboxylic acid. For some compounds, in vivo efficacy was determined by testing a group of eight mice at a single dose level only. In these cases, the data presented in Table 13, below are reported as percent survival at the designated dose.

[3] = 50 mM citrate buffer, thermodynamic from solid
[4] = oral dose 1 h later, read-out: ED50 p.o.
[5] = iv, i.v. dose 1 h later, read-out: ED50 i.v.

| Structure (SMILES) | solubility at 24 h [1, 3] [µg/mL] | Aqueous Solubility pH~7 (visual clarity) [1] | ED50 [2, 4] [mg/kg] | ED50 [2, 5] [mg/kg] | other results |
| --- | --- | --- | --- | --- | --- |
| CN[C@@H](C)C(=O)NC/C(F)=C1/CCCN(c2c(F)cc3c(=O)c(C(=O)O)cn(C4CC4)c3c2OC)C1.Cl [Compound 7, 1-Cyclopropyl-6-fluoro-7-{3-[1-fluoro-2-((2S)-2-methylamino-propionylamino)-ethylidene]-piperidin-1-yl}-8-methoxy-4-oxo-1,4-dihydro-quinoline-3-carboxylic acid hydrochloride] | > 3300 | Yes |  |  | % Survival ([2]; at 2.1 mg/kg/day): 0% at 2.1 mg/kg/day |
| CCOP(=O)(NCC(F)=C1CCCN(c2c(F)cc3c(=O)c(C(=O)[O-])cn(C4CC4)c3c2OC)C1)OCC.[Na+] [Compound 13, 1-Cyclopropyl-7-{3-[2-(diethoxy-phosphorylamino)-1-fluoro-ethylidene]-piperidin-1-yl}-6-fluoro-8-methoxy-4-oxo-1,4-dihydro-quinoline-3-carboxylic acid sodium salt] |  |  |  |  | solubility at 24 h ([1]; thermodynamic from solid): < 3300 µg/mL; solubility ([1]; pH 7.8, aqueous buffer, thermodynamic from solid): 1800 µg/mL; % Survival ([2]; at 3.8 mg/kg/day): 12.5% at 3.8 mg/kg/day |
| COc1c(N2CCC/C(=C(\F)CNC(=O)[C@@H](N)CC(=O)O)C2)c(F)cc2c(=O)c(C(=O)O)cn(C3CC3)c12.Cl [Compound 5, 7-{3-[2-((2S)-2-Amino-3-carboxy-propionylamino)-1-fluoro-ethylidene]-piperidin-1-yl}-1-cyclopropyl-6-fluoro-8-methoxy-4-oxo-1,4-dihydro-quinoline-3-carboxylic acid hydrochloride] | < 3300 | No | > 15.7 | > 3.9 |  |
| COc1c(N2CCC/C(=C(\F)CNC(=O)[C@H](CC(C)C)NC(=O)[C@H](C)N)C2)c(F)cc2c(=O)c(C(=O)O)cn(C3CC3)c12.Cl [Compound 10, 7-(3-{2-[(2S)-2-((2S)-2-Amino-propionylamino)-4-methyl-pentanoylamino]-1-fluoro-ethylidene}-piperidin-1-yl)-1-cyclopropyl-6-fluoro-8-methoxy-4-oxo-1,4-dihydro-quinoline-3-carboxylic acid hydrochloride] | < 3300 | No |  |  | % Survival ([2]; at 2.4 mg/kg/day): 25% at 2.4 mg/kg/day |
| COc1c(N2CCC/C(=C(\F)CNC(=O)OCc3oc(=O)oc3C)C2)c(F)cc2c(=O)c(C(=O)O)cn(C3CC3)c12 [Compound 8, 1-Cyclopropyl-6-fluoro-7-{3-[1-fluoro-2-(5-methyl-2-oxo-[1,3]dioxol-4-ylmethoxycarbonylamino)-ethylidene]-piperidin-1-yl}-8-methoxy-4-oxo-1,4-dihydro-quinoline-3-carboxylic acid] | < 3300 | No |  |  |  |
| COc1c(N2CCC/C(=C(\F)CNC(=O)[C@@H](N)CCCCN)C2)c(F)cc2c(=O)c(C(=O)O)cn(C3CC3)c12.Cl.Cl [Compound 9, 1-Cyclopropyl-7-{3-[2-((2S)-2,6-diamino-hexanoylamino)-1-fluoro-ethylidene]-piperidin-1-yl}-6-fluoro-8-methoxy-4-oxo-1,4-dihydro-quinoline-3-carboxylic acid dihydrochloride] | > 3300 | Yes |  |  | % Survival ([2]; at 1.9 mg/kg/day): 25% at 1.9 mg/kg/day |
| COc1c(N2CCC/C(=C(\F)CNC(=O)[C@H](C)NC(=O)[C@H](C)N)C2)c(F)cc2c(=O)c(C(=O)O)cn(C3CC3)c12.Cl [Compound 2, 7-(3-{2-[(2S)-2-((2S)-2-Amino-propionylamino)-propionylamino]-1-fluoro-ethylidene}-piperidin-1-yl)-1-cyclopropyl-6-fluoro-8-methoxy-4-oxo-1,4-dihydro-quinoline-3-carboxylic acid hydrochloride] | < 3300 | No | > 14.9 | 2.6 |  |
| COc1c(N2CCC/C(=C(\F)CNC(=O)[C@@H](N)Cc3ccccc3)C2)c(F)cc2c(=O)c(C(=O)O)cn(C3CC3)c12.Cl [Compound 3, 7-{3-[2-((2S)-2-Amino-3-phenyl-propionylamino)-1-fluoro-ethylidene]-piperidin-1-yl}-1-cyclopropyl-6-fluoro-8-methoxy-4-oxo-1,4-dihydro-quinoline-3-carboxylic acid hydrochloride] | < 3300 | No | > 14.8 | 1.4 |  |
| CCOC(=O)c1cn(C2CC2)c2c(OC)c(N3CCC/C(=C(\F)CN)C3)c(F)cc2c1=O.Cl [Compound 11, 7-[3-(2-Amino-1-fluoro-ethylidene)-piperidin-1-yl]-1-cyclopropyl-6-fluoro-8-methoxy-4-oxo-1,4-dihydro-quinoline-3-carboxylic acid ethyl ester hydrochloride] | < 3300 | No | 6.7 | 1.2 |  |
